Assays:
Firefly Luciferase [1] = biological target: T1, Firefly Luciferase (Photinus pyralis, UniProt P08659, K549A/L550V/N119G/N50D/S548I); assay: biochemical; type: biochemical
T1 construct: host or cells: Chinese hamster ovary (CHO) cells, transient transfection, cleared lysate

Renilla Luciferase [2] = biological target: T2, Renilla Luciferase (Renilla reniformis, UniProt P27652); assay: Quenching of the luminescent reaction of Renilla luciferase by RLQ reagents (Table 3); type: biochemical
T2 sequence (P27652 1-311): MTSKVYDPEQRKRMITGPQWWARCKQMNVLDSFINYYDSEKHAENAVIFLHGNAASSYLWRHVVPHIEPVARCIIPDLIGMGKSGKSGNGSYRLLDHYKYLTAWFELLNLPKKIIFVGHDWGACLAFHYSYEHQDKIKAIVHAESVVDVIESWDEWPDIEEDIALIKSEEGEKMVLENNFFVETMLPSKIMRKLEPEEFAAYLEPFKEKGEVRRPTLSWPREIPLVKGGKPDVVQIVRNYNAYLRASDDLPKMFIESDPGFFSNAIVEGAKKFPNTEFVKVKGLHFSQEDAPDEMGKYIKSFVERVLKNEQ
Method: Numerous chemical compounds were tested individually and in combination for their ability to rapidly quench luciferase catalyzed luminescent reactions. Table 1 and Table 3 present the potency of quenching firefly and Renilla luciferases, respectively, for representative concentrations of the compounds tested. The percentage of residual luminescent signal measured after addition of the test compound is indicative of its quenching efficiency. Whether used individually or in combination at varying concentrations, useful quench formulations should be capable of reducing luminescence from the luciferase reactions by 1,000-fold, i.e., to 0.1% of the starting luminescent emission.
Renilla luciferase reactions were performed by adding 100 μl of purified Renilla luciferase (typically diluted to 0.3 μg per ml in 75 mM HEPES, 0.02% BSA; pH 8) to a luminometer tube containing an equal volume of Renilla substrate solution (7.5 mM sodium acetate, 10 mM CDTA, 400 mM sodium sulfate, 25 μM APMBT, 15 mM sodium pyrophosphate, 2 μM coelenterazine; pH 5.5). Photon emission was quantified as previously described. The individual and combined chemical formulations summarized in Table 3 were evaluated for their ability to quench Renilla luciferase luminescence by adding 100 μl of the test solution to the luminescent reaction, then quantifying residual light emission as before.

Firefly Luciferase [3] = biological target: T1, Firefly Luciferase; assay: biochemical; details: read-out: Percent (%) Residual Firefly Luciferase Activity
Method: Assays were performed using a cell extract prepared from CHO cells expressing firefly luciferase (described in detail below) and further supplemented with purified Renilla luciferase (approximately 0.3 μg/ml). Thus, the prepared extract simulates the experimental condition in which a single cell population is induced to simultaneously express two distinct luciferase reporter enzymes. Reactions to determine Renilla luciferase activity were conducted by first dispensing 10 μl of extract into a luminometer tube containing 100 μl BLA Reagent (75 mM HEPES, 4 mM MgSO4, 20 mM DTT, 100 μM EDTA, 530 μM ATP, 270 μM CoA, 470 μM beetle luciferin: pH 8.0), then adding 100 μl of one of the various BLQRLA test reagents. The 100% control value for Reporter #1, the firefly luciferase-mediated luminescent reaction, was determined by quantifying light emission from said reaction prior to addition of the designated BLQRLA Reagent. The 100% control value for Reporter #2, the Renilla luciferase-mediated luminescent reaction, was determined using the dual-reporter assay format in which
control BLQRLA Reagent (7.5 mM acetic acid, 15 mM Na4 PPi, 400 mM Na2 SO4, 2 μM coelenterazine; pH 5.0) was added to the firefly luciferase reaction in a 1:1 volume ratio.

Renilla Luciferase [4] = biological target: T2, Renilla Luciferase; assay: Compatibility of BLA and BLQ reagent chemicals with the luminescent reaction of Renilla luciferase (Table 4); type: biochemical
From the text: Implicit to the concept of an integrated (i.e., sequential-measurement) dual-enzyme reporter assay is the necessity to efficiently quench luminescence from the first reporter enzyme such that the activity of the second luminescent reporter is not inhibited. Therefore a quench reagent is required that is extremely potent in quenching luminescence from the firefly reaction but can exist as a passive component in the subsequent luminesces reaction catalyzed by Renilla luciferase. Selected chemical components of Beetle Luciferase Activation (BLA) Reagent, and chemicals identified in Table 1 as candidate Beetle Luciferase Quench (BLQ) Reagents, were further evaluated to assess any inhibitory interaction they may have with the luminescent reaction catalyzed by Renilla luciferase. Table 4 summarizes the affect of these selected chemicals on the luminescent activity of Renilla luciferase. Because of its potent inhibitory affect on the firefly reaction, sodium pyrophosphate (Na4 PPi) was tested first. 100 μl Mathews' Buffer supplemented with 2 μM benzyl-coelenterazine and 15 mM Na4 PPi was dispensed into a luminometer tube containing approximately 3 ng of purified Renilla luciferase in 100 μl Mathews' Buffer, and luminescence was quantified. […]

[5] = read-out: Percent (%) Residual Firefly Luciferase Activity
[6] = assay concentration 0.33% (v/v)

T1 sequence (P08659 whole entry N50D/N119G/S548I/K549A/L550V): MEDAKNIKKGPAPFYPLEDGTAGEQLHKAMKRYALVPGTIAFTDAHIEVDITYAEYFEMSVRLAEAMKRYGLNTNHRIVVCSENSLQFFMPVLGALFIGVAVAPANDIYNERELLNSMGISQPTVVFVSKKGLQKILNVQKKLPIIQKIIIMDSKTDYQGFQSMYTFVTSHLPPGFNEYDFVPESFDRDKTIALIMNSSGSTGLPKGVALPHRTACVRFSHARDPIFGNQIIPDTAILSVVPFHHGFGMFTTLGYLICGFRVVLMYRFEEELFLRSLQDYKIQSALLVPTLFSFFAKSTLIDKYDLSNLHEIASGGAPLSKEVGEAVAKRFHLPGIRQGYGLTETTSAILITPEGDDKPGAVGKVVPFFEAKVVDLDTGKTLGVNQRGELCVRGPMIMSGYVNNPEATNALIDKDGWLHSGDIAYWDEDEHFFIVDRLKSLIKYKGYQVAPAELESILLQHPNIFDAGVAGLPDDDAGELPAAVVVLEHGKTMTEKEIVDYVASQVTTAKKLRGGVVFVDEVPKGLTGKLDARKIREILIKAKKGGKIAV

`CC(C)O` [iso-Propanol, iso-propanol] gave a remaining activity at 14.4 % (Firefly Luciferase [1]; [5]) of 2.3%.
With `Nc1ncnc2c1ncn2[C@@H](CO)O[C@@H](CO)COP(=O)(O)OP(=O)(O)OP(=O)(O)O` [or-ATP, Adenosine 5'-Triphosphate 2',3'-acyclic dialcohol, Periodate Oxidized, Borohydride Reduced] the remaining activity at 7600 µM (Firefly Luciferase [1]; [5]) was 0.78%.
With `O=S(=O)([O-])[O-].[Na+].[Na+]` [Na2 SO4, sodium sulfate] the “Percent (%) Residual Firefly Luciferase Activity” value (Firefly Luciferase [1]; assay concentration 400 mM) was 10%.
In the case of `O=C(O)CC(O)(CC(=O)O)C(=O)O` [Citric Acid, pH 3, citric acid], the remaining activity at 6670 µM (Renilla Luciferase [2]; assay concentration 6.67 mM, read-out: Percent (%) Residual Renilla Luciferase Activity) is reported as 5.3%.
In the case of `c1ccc2scnc2c1` [BT, Benzothiazole], the remaining activity at 3000 µM (Firefly Luciferase [1]; [5]) is reported as 2.3%.
With `O=[N+]([O-])[O-].[Na+]` [NaNO3] the “Percent (%) Residual Firefly Luciferase Activity” value (Firefly Luciferase [1]; assay concentration 400 mM) was 2.1%.
`O=P([O-])([O-])O.[K+].[K+]` [K2 HPO4] was tested, and the “Percent (%) Residual Firefly Luciferase Activity” value (Firefly Luciferase [1]; assay concentration 190 mM) was 8.3%.
`O=C(O)CN(CCN(CC(=O)O)CC(=O)O)CC(=O)O` [EDTA, Ethylenediaminetetraacetic acid] gave a remaining activity at 22700 µM (Firefly Luciferase [1]; [5]) of 0.13%.
Work on `c1ccc(-c2nc3ccccc3s2)cc1` [PBT, 2-Phenylbenzothiazole] yielded a remaining activity at 150 µM (Firefly Luciferase [1]; assay concentration 0.15 mM, read-out: Percent (%) Residual Firefly Luciferase Activity) of 7.5%.
`[Cl-].[Na+]` [NaCl] was tested, and the “Percent (%) Residual Firefly Luciferase Activity” value (Firefly Luciferase [1]; assay concentration 400 mM) was 8.3%.
`Cc1ccc2nc(-c3ccc(N)cc3)sc2c1` [APMBT, 2-(4-aminophenyl)-6-methylbenzothiazole] was tested, and the remaining activity at 7.6 µM (Firefly Luciferase [1]; [5]) was 0.33%.
For Tween ®20, the “Percent (%) Residual Renilla Luciferase Activity” value (Renilla Luciferase [2]; [6]) was 3.4%.
With `O=C(O)c1csc(-c2nc3ccc(O)cc3s2)n1` [Dehydroluciferin, 2-(6'-Hydroxy-2'-benzothiazolyl)-thiazole-4-carboxylic acid] the “Percent (%) Residual Firefly Luciferase Activity” value (Firefly Luciferase [1]; assay concentration: Saturating) was 0.064%.
`O=C(O)CN(CC(=O)O)[C@@H]1CCCC[C@H]1N(CC(=O)O)CC(=O)O` (relative stereo) [CDTA, trans-1,2,-Diaminocyclohexane-N,N,N',N'-tetraacetic acid] was tested, and the remaining activity at 15400 µM (Firefly Luciferase [1]; [5]) was 0.1%.
`CCCCCCCCCCCCOS(=O)(=O)[O-].[Na+]` [SDS, Sodium Dodecyl Sulfate] was tested, and the remaining activity at 0.33 % (Renilla Luciferase [2]; assay concentration 0.33% (w/v), read-out: Percent (%) Residual Renilla Luciferase Activity) was 0.00029% and the remaining activity at 0.3 % (Firefly Luciferase [1]; [5]) was 0.079%.
For `CCCCO` [n-Butanol, n-butanol], the remaining activity at 1.67 % (Renilla Luciferase [2]; assay concentration 1.67% (v/v), read-out: Percent (%) Residual Renilla Luciferase Activity) was 4.5%.
For Triton ® X-100, the “Percent (%) Residual Renilla Luciferase Activity” value (Renilla Luciferase [2]; [6]) was 3.1%.
For `Oc1ccccc1-c1nc2ccccc2s1` [HPBT, 2(O-Hydroxyphenyl)benzothiazole], the remaining activity at 30 µM (Firefly Luciferase [1]; [5]) was 44%.
For `[I-].[Na+]` [NaI, sodium iodide], the “Percent (%) Residual Renilla Luciferase Activity” value (Renilla Luciferase [2]; assay concentration 330 mM) was 5.9% and the “Percent (%) Residual Firefly Luciferase Activity” value (Firefly Luciferase [1]; assay concentration 400 mM) was 0.078%.
For `O=P([O-])([O-])OP(=O)([O-])[O-].[Na+].[Na+].[Na+].[Na+]` [Na4 PPi, Tetrasodium Pyrophosphate], the remaining activity at 7500 µM (Firefly Luciferase [3]) was 1%, the “inhibitory effect on the luminescent reaction catalyzed by Renilla luciferase” value (Renilla Luciferase [4]; Mathews' Buffer with 15 mM Na4 PPi added 1:1, compared to control lacking sodium pyrophosphate) was “no inhibitory affect” and the activity at 7500 µM (Renilla Luciferase [4]; assay concentration 7.5 mM, control = 100%, read-out: Percent (%) Renilla Luciferase Activity) was 102%. For the same compound, the remaining activity at 31000 µM (Firefly Luciferase [1]; [5]) was 0.12%.
Compound `CCCCCCCCCCP(C)(C)=O` [APO-10, Dimethyldecylphosphine Oxide] has a remaining activity at 1 % (Firefly Luciferase [1]; [5]) of 1.9%.

From patent US5744320A (priority 1995, dated 1998)
